Experimental data: US8354547B2, “4β-amino podophyllotoxin congeners as anti tumour antibiotics a process for the preparation thereof” (Council of Scientific & Industrial Research, priority 2008, dated 2013)

Assays:
[1] = system: Liver (HEP-2) cancer cell line; test: SRB in vitro cytotoxicity assay, Liver HEP-2; type: cell-based, human; details: concentration 1 × 10^−5 (μM/mL)
Method: (§1) Single cell suspension of the tumor cells grown in tissue culture were made, cells counted and cell count adjusted to 1×10^5 to 5×10^5 Ninetysix (96) well plates were seeded with this cell suspension, each well receiving 100 μl of it. The plate was then be incubated at 37° C. temperature in CO2 incubator for 24 hours. Drugs were added at appropriate concentrations after 24-hour, incubation followed by further incubation for 48 hours. Experiment was terminated by gently layering the cells in the wells with 30% TCA and plates were kept in refrigerator for 1 hour following which they were washed thoroughly with tap water, dried attained with 0.4% SRB in 1% acetic aid and finally, the bound SRB eluted with 10 mM tris. Absorbance was read at 540 nm, in the microtitre-plate reader. Optical density of drug-treated cells was compared with that of control cells and cell inhibition was calculated as percent values. […]

leukemia (MOLT-4) cells = test: DNA laddering (fragmentation) assay by gel electrophoresis; type: cell-based; details: 0.5, 1, 5, and 10 μM, 24 hr incubation (FIG. 4)
Method: (§2) Compound 3d evaluated for DNA laddering assay.
DNA fragmentation was determined by electrophoresis of extracted genomic DNA form leukemia cell (MOLT4). Briefly, exponentially growing cells (2×10^6 cells/mL) in 6 well plate were treated with compound 3d in 0.5, 1, 5 and 10 μM concentrations for 24 hrs. Cells were harvested, washed with PBS, pellets were dissolved in lyris buffer (10 mM EDTA, 50 mM Tris pH 8.0, 0.5% w/v SDS and proteinase K (0.5 mg/mL) and incubated at 50° C. for 1 hr. Finally the DNA obtained was heated rapidly to 70° C., supplemented with loading dye and immediately resolved on to 1.5% agarose gel at 50 V for 2-3 hrs (FIG. 4).

[2] = system: Colon (Colo-205) cancer cell line; test: SRB in vitro cytotoxicity assay, Colon Colo-205; type: cell-based, human; details: concentration 1 × 10^−5 (μM/mL)
Method: as §1

Topoisomerase-I = target: T1, Topoisomerase-I (Homo sapiens, UniProt P11387); test: Topoisomerase-I relaxation assay; type: biochemical; details: at 100 μM (FIG. 2)
T1 sequence (P11387 1-765): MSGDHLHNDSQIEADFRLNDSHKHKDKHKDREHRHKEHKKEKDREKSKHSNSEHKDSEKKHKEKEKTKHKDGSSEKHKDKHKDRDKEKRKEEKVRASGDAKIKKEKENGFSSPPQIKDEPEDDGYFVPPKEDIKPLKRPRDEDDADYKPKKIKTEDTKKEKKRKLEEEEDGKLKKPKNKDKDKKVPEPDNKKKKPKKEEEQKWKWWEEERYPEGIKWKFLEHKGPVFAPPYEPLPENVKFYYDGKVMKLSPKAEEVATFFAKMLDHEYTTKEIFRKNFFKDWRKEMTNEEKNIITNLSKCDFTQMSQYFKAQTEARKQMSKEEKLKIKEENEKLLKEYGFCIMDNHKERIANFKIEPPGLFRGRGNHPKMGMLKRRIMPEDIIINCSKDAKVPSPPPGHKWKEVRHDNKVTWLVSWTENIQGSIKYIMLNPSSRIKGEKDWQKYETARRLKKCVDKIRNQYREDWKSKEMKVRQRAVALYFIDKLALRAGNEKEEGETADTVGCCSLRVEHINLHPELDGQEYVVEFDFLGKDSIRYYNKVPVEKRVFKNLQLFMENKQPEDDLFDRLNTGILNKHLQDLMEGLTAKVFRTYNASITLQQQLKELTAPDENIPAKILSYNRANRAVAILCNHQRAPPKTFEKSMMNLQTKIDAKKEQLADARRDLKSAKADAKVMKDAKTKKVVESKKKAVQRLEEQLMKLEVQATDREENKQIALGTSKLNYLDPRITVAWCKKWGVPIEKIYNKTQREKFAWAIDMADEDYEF
Method: Apart from this, some of these analogues were evaluated for Topoisomerase-I relaxation, Topoisomerase-II inhibition, DNA laddering assay and DNA cell cycle analysis. Compounds 3c, 4c, 3d and 4d were analyzed for topoisomerase-I assay at 100 μM (FIG. 2) only compound 3d was found active and rest were not active. Compounds 3d, 4d and 4c were analyzed for topoisomerase inhibition assay.
Reaction was assembled in micro centrifuge tube that contains super coiled DNA 250 ng/μl & Topoisomerase-I (4 units) in assay buffer (10 mM Tris-HCl, pH 7.9, 0.15 M NaCl, 0.1% BSA, and 5.0 mM (beta)-mercaptoethanol). In each reaction 2 μl sample was added then volume was made up to 20 μl with water and then incubated at 37° C. Reaction was terminated by addition of 2 μl of 10% SDS. Each sample tube was treated with proteinase K and extracted once with chloroform: isoamyl alcohol. Products were resolved by 0.8% agarose gel electrophoresis in TAE buffer (40 mM tris-acetate, pH 8.0, and 1 mM EDTA) and stained with 0.5 μg/ml ethedium bromide (EtBr).

[3] = system: CNS (SK-N-SH) cancer cell line; test: SRB in vitro cytotoxicity assay, CNS SK-N-SH; type: cell-based, human; details: concentration 1 × 10^−5 (μM/mL)
Method: as §1

[4] = system: Neuroblastoma (IMR-32) cancer cell line; test: SRB in vitro cytotoxicity assay, Neuroblastoma IMR-32; type: cell-based, human; details: concentration 1 × 10^−5 (μM/mL)
Method: as §1

[5] = system: Breast (MCF-7) cancer cell line; test: SRB in vitro cytotoxicity assay, Breast MCF-7; type: cell-based, human; details: concentration 1 × 10^−5 (μM/mL)
Method: as §1

[6] = system: Colon (SW-620) cancer cell line; test: SRB in vitro cytotoxicity assay, Colon SW-620; type: cell-based, human; details: concentration 1 × 10^−5 (μM/mL)
Method: as §1

Lukemia (HL-60) cells = test: DNA cell cycle analysis by flow cytometry; type: cell-based; details: 0.5, 1, 5, and 10 μM, 24 hr (FIG. 5)
Method: as §2
Effect of compound 3d on DNA content by cell cycle phase distribution was assessed using HL-60 cells by incubating the HL-60 cells (1×10^6) 1 ml phosphate buffer saline were treated with 3d (0.5, 1, 5, 10 μM) for 24 hr. The cells were then washed twice with ice-cold PBS, harvested, fixed with ice cold PBS in 70% ethanol, and stored at −20° C. for 30 minutes. After Fixation, these cells were incubated with RNase A (0.1 mg/ml) at 37° C. for 30 min, stained with propidium iodide (50 μg/ml) for 30 min on ice in dark, and then measured for DNA content using BD-LSR flow cytometer (Becton Dickinson, USA) equipped with electronic doublet discrimination capability using blue (488 nm) excitation from orgon laser. Data were collected in list mode on 10,000 events for FL2-A vs. FL2-W (FIG. 5).

SMILES: COc1cc([C@@H]2c3cc4c(cc3[C@@H](Nc3cc5c6ccccc6ccc5c5ccccc35)[C@@H]3COC(=O)[C@H]23)OCO4)cc(OC)c1OC [Compound 3d, 4β-(6″-Chrycenylamino)-4-desoxypodophyllotoxin]
- Growth Inhibition(%) Liver HEP-2 [1]: 66%
- DNA fragmentation (leukemia (MOLT-4) cells): induced DNA fragmentation
- Growth Inhibition(%) Colon Colo-205 [2]: 51%
- activity in topoisomerase-I assay (Topoisomerase-I): active
- Growth Inhibition(%) CNS SK-N-SH [3]: 73%
- Growth Inhibition(%) Neuroblastma IMR-32 [4]: 1%
- Growth Inhibition(%) Breast MCF-7 [5]: 0%
- Growth Inhibition(%) Colon SW-620 [6]: 14%
- cell cycle phase block (Lukemia (HL-60) cells): blocks the G1 Phase
- sub G1 cell population (apoptosis) (Lukemia (HL-60) cells): increase
